Earlier results, collected in patent US9597338B2, “Shell-and-core dosage form approaching zero-order drug release” (Depomed, Inc., priority 2000, dated 2017).

Details: oral; doses administered with or following a meal

## Cc1c(O)cccc1C(=O)N[C@@H](CSc1ccccc1)[C@H](O)CN1C[C@H]2CCCC[C@H]2C[C@H]1C(=O)NC(C)(C)C [nelfinavir]
  Area under the plasma concentration-time curve with or following a meal: two to three times greater
  Peak plasma concentration with or following a meal: two to three times greater
